Biological target: PDZ1–3 (PDZ123) domains of PSD-95 (Rattus norvegicus, UniProt P31016)
Assay: […]-1H HSQC NMR chemical shift titration
Type: binding

Chain of PDZ1–3 (PDZ123) domains of PSD-95 (P31016 61-393): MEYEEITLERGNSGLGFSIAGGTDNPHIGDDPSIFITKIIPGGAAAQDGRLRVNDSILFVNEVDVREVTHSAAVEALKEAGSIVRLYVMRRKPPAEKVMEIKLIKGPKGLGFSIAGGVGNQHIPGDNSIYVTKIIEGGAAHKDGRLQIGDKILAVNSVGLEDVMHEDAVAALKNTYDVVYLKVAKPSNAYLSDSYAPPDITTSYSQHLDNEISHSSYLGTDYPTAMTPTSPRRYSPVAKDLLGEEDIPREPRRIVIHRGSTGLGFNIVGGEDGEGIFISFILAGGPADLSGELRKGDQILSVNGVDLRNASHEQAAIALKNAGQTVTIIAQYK

Kd: ~3 mM
Structure (SMILES): FC(F)OC(Cl)C(F)(F)F (stereo not shown) [isoflurane]

Reference: PMC4366275 (Anesthesiology, 2015)
